Here are results for six cell lines from the supplement of paper PMC10307832.

Experiment in all cases: relative viability (nuclei count vs DMSO), 5 days (fraction); higher = more cells survive
Compound in the test “Zebularine + Trametinib”: O=c1ncccn1[C@@H]1O[C@H](CO)[C@@H](O)[C@H]1O [Zebularine] + CC(=O)Nc1cccc(-n2c(=O)n(C3CC3)c(=O)c3c(Nc4ccc(I)cc4F)n(C)c(=O)c(C)c32)c1 [Trametinib] (partner 0.02 µM)
Summed up: (§1)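 After 5 days of treatment, lung cancer cells in 1536-well plates were fixed and stained in a single step (final 0.05% Triton X-100, 1% formaldehyde, 1 ug/ml Hoechst) and their nuclei counted on 4× images. Treatment had been applied by pin tool the day after seeding as one drug alone or as a fixed anchor-drug dose with five library-drug doses (not always all listed) in √10 steps. Relative viability is the nuclei count of treated wells divided by that of vehicle wells, and values are medians of duplicate plates.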

Compound in the test “BI-D1870 + Phenformin”: CC(C)CCN1c2nc(Nc3cc(F)c(O)c(F)c3)ncc2N(C)C(=O)C1C [BI-D1870] + N=C(N)NC(=N)NCCc1ccccc1 [Phenformin] (partner 250 µM)
The method, boiled down:
as §1

Compound in the test “Zebularine + Vorinostat”: O=c1ncccn1[C@@H]1O[C@H](CO)[C@@H](O)[C@H]1O [Zebularine] + O=C(CCCCCCC(=O)Nc1ccccc1)NO [Vorinostat] (partner 1 µM)
Summed up:
as §1

Compound in the test “Zebularine + Pictilisib”: O=c1ncccn1[C@@H]1O[C@H](CO)[C@@H](O)[C@H]1O [Zebularine] + CS(=O)(=O)N1CCN(Cc2cc3nc(-c4cccc5[nH]ncc45)nc(N4CCOCC4)c3s2)CC1 [Pictilisib] (partner 1 µM)
The method, boiled down:
as §1

Turning to NCI-H1651, the relative viability with Zebularine + Trametinib (first compound 1 µM) was determined as 0.875; in the test with Zebularine + Trametinib (first compound 3.162 µM) it was 0.865; with Zebularine + Trametinib (first compound 10 µM), 0.82; with Zebularine + Trametinib (first compound 31.62 µM), 0.772; with Zebularine + Trametinib (first compound 100 µM), 0.35; with BI-D1870 + Phenformin (first compound 0.04 µM), 0.389. Moreover, the relative viability with BI-D1870 + Phenformin (first compound 0.1265 µM) came to 0.315; with BI-D1870 + Phenformin (first compound 0.4 µM), 0.287; in the test with BI-D1870 + Phenformin (first compound 1.265 µM), 0.295; in the test with BI-D1870 + Phenformin (first compound 4 µM), 0.322; in the test with Zebularine + Vorinostat (first compound 1 µM), 0.637; in the test with Zebularine + Vorinostat (first compound 3.162 µM), 0.537. Also, the relative viability with Zebularine + Vorinostat (first compound 10 µM) turned out to be 0.501; in the test with Zebularine + Vorinostat (first compound 31.62 µM), 0.523; with Zebularine + Vorinostat (first compound 100 µM), 0.46; with Zebularine + Pictilisib (first compound 1 µM), 0.71; with Zebularine + Pictilisib (first compound 3.162 µM), 0.732; with Zebularine + Pictilisib (first compound 31.62 µM) it was 0.571. The relative viability in the test with Zebularine + Pictilisib (first compound 100 µM) amounted to 0.418.
Take NCI-H1666: the relative viability with Zebularine + Trametinib (first compound 1 µM) stood at 0.884; with Zebularine + Trametinib (first compound 3.162 µM), 0.817; with Zebularine + Trametinib (first compound 10 µM) it was 0.699; with Zebularine + Trametinib (first compound 31.62 µM) it was 0.865; with Zebularine + Trametinib (first compound 100 µM), 0.842; with BI-D1870 + Phenformin (first compound 0.04 µM), 0.572. In addition, the relative viability with BI-D1870 + Phenformin (first compound 0.1265 µM) is 0.521; in the test with BI-D1870 + Phenformin (first compound 0.4 µM), 0.592; with BI-D1870 + Phenformin (first compound 1.265 µM) it was 0.58; in the test with BI-D1870 + Phenformin (first compound 4 µM), 0.537; with Zebularine + Vorinostat (first compound 1 µM), 1.01; with Zebularine + Vorinostat (first compound 3.162 µM) it was 1.02. Besides, the relative viability amounted to 0.752 with Zebularine + Vorinostat (first compound 10 µM); 1.09 with Zebularine + Vorinostat (first compound 31.62 µM); 0.939 with Zebularine + Vorinostat (first compound 100 µM); 0.472 with Zebularine + Pictilisib (first compound 1 µM); 0.477 with Zebularine + Pictilisib (first compound 3.162 µM); 0.383 in the test with Zebularine + Pictilisib (first compound 10 µM). The relative viability is 0.506 with Zebularine + Pictilisib (first compound 31.62 µM) and 0.311 with Zebularine + Pictilisib (first compound 100 µM).
As to NCI-H1734, the relative viability with Zebularine + Trametinib (first compound 1 µM) is 0.738; with Zebularine + Trametinib (first compound 3.162 µM) it was 0.641; with Zebularine + Trametinib (first compound 10 µM) it was 0.527; in the test with Zebularine + Trametinib (first compound 31.62 µM) it was 0.54; in the test with Zebularine + Trametinib (first compound 100 µM), 0.275; with BI-D1870 + Phenformin (first compound 0.04 µM), 0.402. Besides, the relative viability was found to be 0.379 in the test with BI-D1870 + Phenformin (first compound 0.1265 µM); 0.412 in the test with BI-D1870 + Phenformin (first compound 0.4 µM); 0.43 with BI-D1870 + Phenformin (first compound 1.265 µM); 0.376 with BI-D1870 + Phenformin (first compound 4 µM); 0.983 with Zebularine + Vorinostat (first compound 1 µM); 0.717 with Zebularine + Vorinostat (first compound 3.162 µM). Also, the relative viability in the test with Zebularine + Vorinostat (first compound 10 µM) stood at 0.425; in the test with Zebularine + Vorinostat (first compound 31.62 µM), 0.401; with Zebularine + Vorinostat (first compound 100 µM) it was 0.253; with Zebularine + Pictilisib (first compound 1 µM), 0.505; with Zebularine + Pictilisib (first compound 3.162 µM) it was 0.385; with Zebularine + Pictilisib (first compound 10 µM), 0.341. For the same cell line, the relative viability was determined as 0.333 with Zebularine + Pictilisib (first compound 31.62 µM) and 0.303 with Zebularine + Pictilisib (first compound 100 µM).
Consider NCI-H1755, for which the relative viability with Zebularine + Trametinib (first compound 1 µM) turned out to be 0.885; with Zebularine + Trametinib (first compound 3.162 µM), 0.766; with Zebularine + Trametinib (first compound 10 µM) it was 0.726; with Zebularine + Trametinib (first compound 31.62 µM), 0.761; with Zebularine + Trametinib (first compound 100 µM), 0.61; with BI-D1870 + Phenformin (first compound 0.04 µM), 0.651. In addition, the relative viability came out at 0.62 in the test with BI-D1870 + Phenformin (first compound 0.1265 µM); 0.647 in the test with BI-D1870 + Phenformin (first compound 0.4 µM); 0.688 with BI-D1870 + Phenformin (first compound 1.265 µM); 0.573 in the test with BI-D1870 + Phenformin (first compound 4 µM); 0.809 with Zebularine + Vorinostat (first compound 1 µM); 0.892 with Zebularine + Vorinostat (first compound 3.162 µM). The relative viability with Zebularine + Vorinostat (first compound 10 µM) stood at 0.614; with Zebularine + Vorinostat (first compound 31.62 µM), 1.11; with Zebularine + Vorinostat (first compound 100 µM), 0.648; with Zebularine + Pictilisib (first compound 1 µM), 0.554; with Zebularine + Pictilisib (first compound 3.162 µM), 0.433; with Zebularine + Pictilisib (first compound 10 µM) it was 0.326. Moreover, the relative viability turned out to be 0.484 with Zebularine + Pictilisib (first compound 31.62 µM) and 0.36 with Zebularine + Pictilisib (first compound 100 µM).
NCI-H1793: the relative viability with Zebularine + Trametinib (first compound 1 µM) was 0.466; with Zebularine + Trametinib (first compound 3.162 µM) it was 0.477; in the test with Zebularine + Trametinib (first compound 10 µM) it was 0.257; in the test with Zebularine + Trametinib (first compound 31.62 µM) it was 0.269; with Zebularine + Trametinib (first compound 100 µM), 0.21; in the test with BI-D1870 + Phenformin (first compound 0.04 µM), 0.387. Moreover, the relative viability in the test with BI-D1870 + Phenformin (first compound 0.1265 µM) was 0.311; with BI-D1870 + Phenformin (first compound 0.4 µM) it was 0.389; with BI-D1870 + Phenformin (first compound 1.265 µM) it was 0.423; in the test with BI-D1870 + Phenformin (first compound 4 µM) it was 0.27; with Zebularine + Vorinostat (first compound 1 µM), 0.819; with Zebularine + Vorinostat (first compound 3.162 µM) it was 0.895. Moreover, the relative viability in the test with Zebularine + Vorinostat (first compound 10 µM) worked out at 0.41; with Zebularine + Vorinostat (first compound 31.62 µM), 0.448; with Zebularine + Vorinostat (first compound 100 µM), 0.328; with Zebularine + Pictilisib (first compound 1 µM), 0.472; in the test with Zebularine + Pictilisib (first compound 3.162 µM), 0.372; in the test with Zebularine + Pictilisib (first compound 10 µM), 0.205. For the same cell line, the relative viability with Zebularine + Pictilisib (first compound 31.62 µM) was 0.269; with Zebularine + Pictilisib (first compound 100 µM), 0.267.
As to NCI-H1915, the relative viability in the test with Zebularine + Trametinib (first compound 1 µM) was 0.315; in the test with Zebularine + Trametinib (first compound 3.162 µM), 0.31; with Zebularine + Trametinib (first compound 10 µM), 0.322; with Zebularine + Trametinib (first compound 31.62 µM), 0.319; in the test with Zebularine + Trametinib (first compound 100 µM) it was 0.287; in the test with BI-D1870 + Phenformin (first compound 0.04 µM), 0.376. Also, the relative viability with BI-D1870 + Phenformin (first compound 0.1265 µM) is 0.358; with BI-D1870 + Phenformin (first compound 0.4 µM), 0.378; in the test with BI-D1870 + Phenformin (first compound 1.265 µM), 0.305; in the test with BI-D1870 + Phenformin (first compound 4 µM), 0.291; with Zebularine + Vorinostat (first compound 1 µM), 0.538; with Zebularine + Vorinostat (first compound 3.162 µM), 0.53. In addition, the relative viability with Zebularine + Vorinostat (first compound 10 µM) was determined as 0.412; in the test with Zebularine + Vorinostat (first compound 31.62 µM), 0.607; with Zebularine + Vorinostat (first compound 100 µM) it was 0.585; with Zebularine + Pictilisib (first compound 1 µM), 1.07; with Zebularine + Pictilisib (first compound 3.162 µM), 0.887; with Zebularine + Pictilisib (first compound 10 µM), 0.774. In addition, the relative viability was 1.02 in the test with Zebularine + Pictilisib (first compound 31.62 µM) and 0.907 with Zebularine + Pictilisib (first compound 100 µM).
